We go through 2 compounds from ChEMBL document CHEMBL3991601, “The target landscape of clinical kinase drugs” (Science, 2017).

Structures are written as SMILES. pKd: −log10 of the molar value. Calls of active or inactive are those of the source. Cut-off read from the data, not from the text of the source, for most assays here: actives have a measured Kd and inactives only a lower limit.

Experiment [1] concerns the target TGF-beta receptor type-2 (Homo sapiens, UniProt P37173).
Experiment [2] deals with T1, Cytochrome c1, heme protein, mitochondrial (Homo sapiens, UniProt P08574).
T1 sequence (P08574 whole entry): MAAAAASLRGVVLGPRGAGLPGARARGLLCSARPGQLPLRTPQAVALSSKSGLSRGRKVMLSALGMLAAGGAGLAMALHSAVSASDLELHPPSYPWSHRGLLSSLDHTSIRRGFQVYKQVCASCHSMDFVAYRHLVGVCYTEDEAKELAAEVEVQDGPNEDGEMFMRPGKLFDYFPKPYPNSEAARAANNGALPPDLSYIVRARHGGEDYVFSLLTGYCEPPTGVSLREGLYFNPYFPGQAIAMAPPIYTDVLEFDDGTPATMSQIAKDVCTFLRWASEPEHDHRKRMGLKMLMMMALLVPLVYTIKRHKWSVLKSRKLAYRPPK

Experiment [3] addresses Elongation factor Tu, mitochondrial (Homo sapiens, UniProt P49411).
The target in experiment [4] is Receptor-interacting serine/threonine-protein kinase 2 (Homo sapiens, UniProt O43353).
Experiment [5] has as its target Casein kinase I isoform alpha (Homo sapiens, UniProt P48729).
For experiment [6], the target named is Tyrosine-protein kinase BTK (Homo sapiens, UniProt Q06187).
The target of experiment [7] is T2, Serine/threonine-protein kinase Nek2 (Homo sapiens, UniProt P51955).
T2 sequence (P51955 whole entry): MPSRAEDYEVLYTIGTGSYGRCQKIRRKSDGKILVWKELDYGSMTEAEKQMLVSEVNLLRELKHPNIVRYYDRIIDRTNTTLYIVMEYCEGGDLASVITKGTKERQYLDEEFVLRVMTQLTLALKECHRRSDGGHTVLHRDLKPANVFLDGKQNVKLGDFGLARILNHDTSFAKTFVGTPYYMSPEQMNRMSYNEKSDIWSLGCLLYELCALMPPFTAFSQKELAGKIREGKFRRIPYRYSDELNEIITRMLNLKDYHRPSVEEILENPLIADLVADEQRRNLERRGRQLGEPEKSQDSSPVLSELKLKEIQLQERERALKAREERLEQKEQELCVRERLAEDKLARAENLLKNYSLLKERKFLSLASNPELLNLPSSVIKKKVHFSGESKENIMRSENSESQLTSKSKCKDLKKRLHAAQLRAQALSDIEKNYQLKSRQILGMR

Experiment [8] addresses T3, Serine/threonine-protein kinase ICK (Homo sapiens, UniProt Q9UPZ9).
T3 sequence (Q9UPZ9 whole entry): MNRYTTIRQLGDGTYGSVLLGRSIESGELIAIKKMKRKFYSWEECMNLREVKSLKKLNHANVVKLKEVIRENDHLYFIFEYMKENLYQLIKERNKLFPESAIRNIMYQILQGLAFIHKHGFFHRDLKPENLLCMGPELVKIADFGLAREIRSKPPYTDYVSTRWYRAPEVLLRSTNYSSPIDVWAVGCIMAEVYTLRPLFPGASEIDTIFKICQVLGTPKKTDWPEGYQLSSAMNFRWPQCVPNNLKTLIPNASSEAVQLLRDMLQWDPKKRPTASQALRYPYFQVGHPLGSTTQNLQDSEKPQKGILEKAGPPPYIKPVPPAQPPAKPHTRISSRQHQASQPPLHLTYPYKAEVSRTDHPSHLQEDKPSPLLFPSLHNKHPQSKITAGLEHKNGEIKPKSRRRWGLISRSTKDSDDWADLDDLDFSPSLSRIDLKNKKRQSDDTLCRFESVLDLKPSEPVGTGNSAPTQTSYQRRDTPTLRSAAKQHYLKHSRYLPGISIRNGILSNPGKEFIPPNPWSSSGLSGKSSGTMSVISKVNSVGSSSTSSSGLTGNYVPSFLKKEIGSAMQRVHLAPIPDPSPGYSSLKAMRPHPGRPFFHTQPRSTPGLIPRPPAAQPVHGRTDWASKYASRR

For experiment [9], the target named is AP2-associated protein kinase 1 (Homo sapiens, UniProt Q2M2I8).
Experiment [10] has as its target Myosin light chain kinase, smooth muscle (Homo sapiens, UniProt Q15746).
Note: in the data inactive means no Kd found up to 30 µM.

Sequence of Myosin light chain kinase, smooth muscle (Q15746 whole entry): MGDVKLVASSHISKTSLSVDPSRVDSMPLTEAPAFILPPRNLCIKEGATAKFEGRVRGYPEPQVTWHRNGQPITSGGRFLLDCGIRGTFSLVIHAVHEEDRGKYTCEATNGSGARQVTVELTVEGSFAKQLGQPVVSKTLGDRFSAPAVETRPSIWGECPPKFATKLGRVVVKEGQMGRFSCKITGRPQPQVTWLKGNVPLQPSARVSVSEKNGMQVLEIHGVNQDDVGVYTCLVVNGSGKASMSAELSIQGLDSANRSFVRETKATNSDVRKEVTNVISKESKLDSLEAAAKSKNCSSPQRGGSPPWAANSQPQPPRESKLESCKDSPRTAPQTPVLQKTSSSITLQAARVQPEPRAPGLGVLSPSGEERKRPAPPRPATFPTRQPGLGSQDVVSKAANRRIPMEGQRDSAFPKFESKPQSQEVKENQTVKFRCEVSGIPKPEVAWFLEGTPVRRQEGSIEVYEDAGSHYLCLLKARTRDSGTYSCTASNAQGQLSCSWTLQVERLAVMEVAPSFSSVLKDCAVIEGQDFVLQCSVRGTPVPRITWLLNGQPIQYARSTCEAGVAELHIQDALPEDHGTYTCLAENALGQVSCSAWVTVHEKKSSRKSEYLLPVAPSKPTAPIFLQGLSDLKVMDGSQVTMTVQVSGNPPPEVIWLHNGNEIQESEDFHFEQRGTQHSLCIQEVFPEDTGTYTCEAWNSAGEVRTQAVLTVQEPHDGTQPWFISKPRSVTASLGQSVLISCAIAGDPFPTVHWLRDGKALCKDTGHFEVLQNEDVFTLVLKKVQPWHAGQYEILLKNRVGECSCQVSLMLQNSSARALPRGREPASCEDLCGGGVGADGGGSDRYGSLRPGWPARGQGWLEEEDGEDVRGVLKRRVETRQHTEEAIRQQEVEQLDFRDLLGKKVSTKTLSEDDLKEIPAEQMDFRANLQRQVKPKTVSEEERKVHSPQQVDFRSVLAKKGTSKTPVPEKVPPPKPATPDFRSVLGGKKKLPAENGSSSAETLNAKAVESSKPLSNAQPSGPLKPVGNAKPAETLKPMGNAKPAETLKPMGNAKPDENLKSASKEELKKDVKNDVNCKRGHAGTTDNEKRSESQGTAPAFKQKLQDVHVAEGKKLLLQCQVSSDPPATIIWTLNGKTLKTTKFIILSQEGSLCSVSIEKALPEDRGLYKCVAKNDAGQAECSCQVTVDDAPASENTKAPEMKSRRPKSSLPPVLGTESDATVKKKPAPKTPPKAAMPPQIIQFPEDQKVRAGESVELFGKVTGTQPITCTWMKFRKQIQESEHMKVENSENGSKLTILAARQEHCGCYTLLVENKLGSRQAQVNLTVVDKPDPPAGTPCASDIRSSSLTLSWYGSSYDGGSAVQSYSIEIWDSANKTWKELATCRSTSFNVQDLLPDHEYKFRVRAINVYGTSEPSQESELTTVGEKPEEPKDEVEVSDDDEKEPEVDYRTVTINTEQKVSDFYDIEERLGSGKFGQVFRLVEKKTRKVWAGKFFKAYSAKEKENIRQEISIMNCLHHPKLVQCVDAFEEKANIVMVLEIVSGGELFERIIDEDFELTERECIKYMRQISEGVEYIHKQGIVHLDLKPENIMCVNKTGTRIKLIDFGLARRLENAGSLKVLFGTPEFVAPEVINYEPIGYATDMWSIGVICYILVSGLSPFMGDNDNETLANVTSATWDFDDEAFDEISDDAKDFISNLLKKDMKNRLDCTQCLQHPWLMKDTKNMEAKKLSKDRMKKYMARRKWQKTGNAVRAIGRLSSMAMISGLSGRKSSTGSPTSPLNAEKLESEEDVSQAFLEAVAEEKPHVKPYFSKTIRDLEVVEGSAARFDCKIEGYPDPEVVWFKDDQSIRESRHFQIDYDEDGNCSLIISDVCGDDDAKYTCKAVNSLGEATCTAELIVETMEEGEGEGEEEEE
Sequence of AP2-associated protein kinase 1 (Q2M2I8 whole entry): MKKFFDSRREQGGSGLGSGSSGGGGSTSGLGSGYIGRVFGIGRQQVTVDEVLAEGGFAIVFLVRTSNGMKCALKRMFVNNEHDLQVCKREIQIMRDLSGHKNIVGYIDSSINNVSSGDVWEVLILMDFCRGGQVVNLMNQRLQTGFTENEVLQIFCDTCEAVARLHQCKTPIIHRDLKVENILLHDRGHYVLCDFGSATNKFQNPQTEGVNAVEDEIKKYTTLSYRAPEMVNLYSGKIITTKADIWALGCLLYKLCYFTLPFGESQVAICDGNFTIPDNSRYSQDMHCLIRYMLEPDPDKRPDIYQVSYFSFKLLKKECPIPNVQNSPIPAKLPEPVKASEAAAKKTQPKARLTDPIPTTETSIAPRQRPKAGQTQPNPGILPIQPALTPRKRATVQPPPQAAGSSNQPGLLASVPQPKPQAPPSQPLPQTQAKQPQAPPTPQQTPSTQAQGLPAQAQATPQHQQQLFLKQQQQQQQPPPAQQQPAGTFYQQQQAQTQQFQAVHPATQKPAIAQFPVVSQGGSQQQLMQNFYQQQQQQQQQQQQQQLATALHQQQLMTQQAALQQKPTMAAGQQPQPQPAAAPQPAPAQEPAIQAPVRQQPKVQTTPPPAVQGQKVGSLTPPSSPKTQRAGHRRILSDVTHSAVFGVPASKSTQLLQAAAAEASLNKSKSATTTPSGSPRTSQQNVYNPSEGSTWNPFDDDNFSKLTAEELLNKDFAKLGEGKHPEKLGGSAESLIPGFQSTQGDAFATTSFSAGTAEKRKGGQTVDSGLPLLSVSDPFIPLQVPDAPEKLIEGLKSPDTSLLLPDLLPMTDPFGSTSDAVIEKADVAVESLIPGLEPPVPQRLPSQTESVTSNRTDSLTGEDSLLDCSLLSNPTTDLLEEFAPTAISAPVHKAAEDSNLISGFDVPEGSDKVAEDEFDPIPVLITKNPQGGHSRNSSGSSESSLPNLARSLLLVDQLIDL
Sequence of Tyrosine-protein kinase BTK (Q06187 whole entry): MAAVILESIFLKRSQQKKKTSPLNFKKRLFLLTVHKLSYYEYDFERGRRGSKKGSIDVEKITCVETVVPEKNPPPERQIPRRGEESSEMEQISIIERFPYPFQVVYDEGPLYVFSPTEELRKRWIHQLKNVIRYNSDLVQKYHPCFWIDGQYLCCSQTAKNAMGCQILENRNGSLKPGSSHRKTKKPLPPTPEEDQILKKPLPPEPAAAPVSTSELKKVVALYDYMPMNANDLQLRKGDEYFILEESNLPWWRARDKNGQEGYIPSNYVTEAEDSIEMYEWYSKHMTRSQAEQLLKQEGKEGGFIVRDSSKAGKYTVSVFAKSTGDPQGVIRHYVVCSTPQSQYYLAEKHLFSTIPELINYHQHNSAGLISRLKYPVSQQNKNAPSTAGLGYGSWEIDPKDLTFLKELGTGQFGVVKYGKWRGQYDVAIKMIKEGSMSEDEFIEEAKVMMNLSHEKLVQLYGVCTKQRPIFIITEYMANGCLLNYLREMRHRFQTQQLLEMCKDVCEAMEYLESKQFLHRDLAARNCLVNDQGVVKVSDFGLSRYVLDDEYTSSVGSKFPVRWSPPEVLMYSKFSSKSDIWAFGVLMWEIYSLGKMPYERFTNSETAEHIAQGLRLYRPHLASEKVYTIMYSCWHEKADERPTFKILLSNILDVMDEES
Sequence of TGF-beta receptor type-2 (P37173 whole entry): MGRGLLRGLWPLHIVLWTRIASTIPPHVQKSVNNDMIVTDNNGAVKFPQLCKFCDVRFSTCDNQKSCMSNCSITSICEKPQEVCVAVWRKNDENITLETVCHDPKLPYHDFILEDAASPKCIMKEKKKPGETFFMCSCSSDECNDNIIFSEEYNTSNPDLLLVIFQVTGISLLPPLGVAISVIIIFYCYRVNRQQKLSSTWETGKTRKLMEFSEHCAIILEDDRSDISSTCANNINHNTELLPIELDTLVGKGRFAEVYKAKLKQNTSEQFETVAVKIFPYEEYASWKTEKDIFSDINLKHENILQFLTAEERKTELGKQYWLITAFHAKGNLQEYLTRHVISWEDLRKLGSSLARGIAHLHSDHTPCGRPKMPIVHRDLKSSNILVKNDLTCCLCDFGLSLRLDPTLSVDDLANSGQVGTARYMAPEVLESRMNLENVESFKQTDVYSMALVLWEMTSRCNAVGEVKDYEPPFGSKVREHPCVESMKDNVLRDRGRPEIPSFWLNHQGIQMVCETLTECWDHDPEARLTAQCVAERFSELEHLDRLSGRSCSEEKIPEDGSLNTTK
Sequence of Receptor-interacting serine/threonine-protein kinase 2 (O43353 whole entry, canonical isoform): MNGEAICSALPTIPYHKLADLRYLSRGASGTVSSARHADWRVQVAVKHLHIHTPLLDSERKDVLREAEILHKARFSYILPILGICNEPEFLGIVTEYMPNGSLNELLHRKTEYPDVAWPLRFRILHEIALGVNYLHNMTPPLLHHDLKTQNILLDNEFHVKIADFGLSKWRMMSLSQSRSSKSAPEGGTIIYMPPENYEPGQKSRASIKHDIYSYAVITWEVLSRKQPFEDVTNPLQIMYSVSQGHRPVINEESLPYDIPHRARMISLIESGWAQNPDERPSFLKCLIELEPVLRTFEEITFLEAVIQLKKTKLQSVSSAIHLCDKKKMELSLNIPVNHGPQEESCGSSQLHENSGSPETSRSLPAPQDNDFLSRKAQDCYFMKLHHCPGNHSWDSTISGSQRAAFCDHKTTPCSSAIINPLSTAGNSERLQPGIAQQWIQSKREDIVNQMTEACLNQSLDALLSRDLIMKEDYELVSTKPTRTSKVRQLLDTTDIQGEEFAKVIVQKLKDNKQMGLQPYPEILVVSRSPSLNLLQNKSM
Sequence of Casein kinase I isoform alpha (P48729 whole entry, canonical isoform): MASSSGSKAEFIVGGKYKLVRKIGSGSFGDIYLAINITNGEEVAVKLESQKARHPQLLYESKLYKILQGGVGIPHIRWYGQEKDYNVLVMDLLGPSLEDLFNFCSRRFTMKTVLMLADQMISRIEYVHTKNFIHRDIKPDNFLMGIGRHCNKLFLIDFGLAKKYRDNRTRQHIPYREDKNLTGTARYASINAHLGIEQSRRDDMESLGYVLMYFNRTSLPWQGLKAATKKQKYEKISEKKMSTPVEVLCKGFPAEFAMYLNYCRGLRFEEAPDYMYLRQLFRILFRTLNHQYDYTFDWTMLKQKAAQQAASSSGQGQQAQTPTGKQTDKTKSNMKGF

One may read the Kd as a measure of binding affinity in units of concentration. Usually pKd stands for the negative decadic logarithm of the Kd, by convention in mol/L. Take `CC(C)c1cc(CNc2nc(Nc3cc(C4CC4)[nH]n3)cc(N3CCN(C)CC3)n2)on1` [XL-228]: the Kd in experiment [1], in experiment [2], in [3], in experiment [4], in experiment [5] and in experiment [7] was > 30 µM (inactive) each time. For the same compound, the Kd is > 30 µM (inactive) in experiment [8], 0.138 µM (active) in experiment [9] and > 30 µM (inactive) in [10]. Besides, the pKd in experiment [6] was 4.80.
As for `CN1C/C=C/CCOc2cccc(c2)-c2ccnc(n2)Nc2cccc(c2)C1` [ZOTIRACICLIB], the Kd in experiment [1], in [2], in experiment [3], in [4], in experiment [5] and in experiment [6] was > 30 µM (inactive) each time. Further, the Kd in [7], in [8], in experiment [9] and in experiment [10] was > 30 µM (inactive) throughout.
